This note sets out measurements from article PMC4063337, “Structure–Activity Relationships of Quinoxaline-Based 5-HT3A and 5-HT3AB Receptor-Selective Ligands” (Chemmedchem, 2013).

The target of one experiment is T1, 5-HT3AB receptor (Homo sapiens, UniProt O95264+P46098).
T1 construct: gene HTR3A; heteromeric (pentameric) receptor expressed recombinantly in HEK293 cells; cell membranes; sites at A+A- and possibly A+B- interfaces; with 5-hydroxytryptamine receptor 3B
T1 sequence (P46098 24-478): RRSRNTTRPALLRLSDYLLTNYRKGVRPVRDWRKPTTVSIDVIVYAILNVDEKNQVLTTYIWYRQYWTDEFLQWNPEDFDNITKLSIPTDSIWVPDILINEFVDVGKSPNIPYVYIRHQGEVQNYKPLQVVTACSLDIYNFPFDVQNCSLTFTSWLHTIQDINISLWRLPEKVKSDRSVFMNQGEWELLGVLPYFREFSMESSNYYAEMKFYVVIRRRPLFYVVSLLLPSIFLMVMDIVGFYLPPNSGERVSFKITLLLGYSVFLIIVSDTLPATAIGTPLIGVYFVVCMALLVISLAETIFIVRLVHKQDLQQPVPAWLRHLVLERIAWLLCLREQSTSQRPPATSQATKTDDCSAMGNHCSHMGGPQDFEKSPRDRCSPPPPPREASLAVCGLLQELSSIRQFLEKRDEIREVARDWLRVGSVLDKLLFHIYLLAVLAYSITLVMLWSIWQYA
T1 sequence (O95264 22-441): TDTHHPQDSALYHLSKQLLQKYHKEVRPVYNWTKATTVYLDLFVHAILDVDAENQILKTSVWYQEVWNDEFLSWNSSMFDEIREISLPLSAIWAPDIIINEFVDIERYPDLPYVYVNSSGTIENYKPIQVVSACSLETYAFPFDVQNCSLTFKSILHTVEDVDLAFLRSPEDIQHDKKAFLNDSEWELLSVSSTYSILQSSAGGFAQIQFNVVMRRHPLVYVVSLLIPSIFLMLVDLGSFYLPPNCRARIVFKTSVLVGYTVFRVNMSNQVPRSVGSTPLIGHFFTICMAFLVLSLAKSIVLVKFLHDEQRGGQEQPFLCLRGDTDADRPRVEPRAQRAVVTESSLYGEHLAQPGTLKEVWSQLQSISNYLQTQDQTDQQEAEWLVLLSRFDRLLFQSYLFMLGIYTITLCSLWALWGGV
Briefly: [3H]granisetron competition binding, HEK293 membranes. The note with it: for Ki: read-out: pKi (AB) (converted). From the text: [3H]granisetron competition binding, HEK293 membranes on 5-HT3AB receptor

A further experiment has as its target T2, 5-HT3A receptor (Homo sapiens, UniProt P46098).
T2 construct: gene HTR3A; homomeric (pentameric) receptor expressed recombinantly in HEK293 cells; cell membranes
T2 sequence (P46098 24-478): T1 sequence (P46098 24-478)
Described as above. The note with it: for pKi (A): 0.7 nM [3H]granisetron, 10 mM HEPES pH 7.4, 4 °C, at least 24 h; for Ki: read-out: pKi (A) (converted). The text has this: [3H]granisetron competition binding, HEK293 membranes on 5-HT3A receptor

For `CN1CCN(c2nc3ccccc3nc2Cl)CC1` [VUF10166, 2-chloro-3-(4-methylpiperazin-1-yl)quinoxaline], the Ki on 5-HT3AB receptor is 0.0126 µM. Besides, the “pKi (A)” value at 5-HT3A receptor is 9.82±0.26.
In the case of `CN1CCN(c2nc3ccccc3[nH]c2=O)CC1` [compound 1, 3-(4-methylpiperazin-1-yl)quinoxalin-2-ol], the Ki is 0.000437 µM at 5-HT3AB receptor and 0.00117 µM on 5-HT3A receptor.
On to `CCc1nc2ccccc2nc1N1CCN(C)CC1` [compound 6, 2-Ethyl-3-(4-methylpiperazin-1-yl)quinoxaline], for which the Ki was 0.00145 µM on 5-HT3AB receptor and 0.000631 µM on 5-HT3A receptor.
Taken in the same sequence, the figures for `CN1CCN(c2cnc3cc(Cl)c(Cl)cc3n2)CC1` [compound 7, 6,7-Dichloro-2-(4-methylpiperazin-1-yl)quinoxaline] were 0.00851 µM and 0.00389 µM.
For the compound `CN1CCN(c2nc3ccccc3nc2N)CC1` [compound 10, 3-(4-Methylpiperazin-1-yl)quinoxalin-2-amine], the Ki on 5-HT3AB receptor was 0.0309 µM; at 5-HT3A receptor, 0.00295 µM.
On the same counts, the results for `CN1CCN(c2nc3cc(Cl)c(Cl)cc3nc2Cl)CC1` [compound 11, 2,6,7-Trichloro-3-(4-methylpiperazin-1-yl)quinoxaline] are 0.0331 µM and 0.00813 µM.
As for `CN1CCN(c2nc3ccccc3nc2Br)CC1` [compound 14, 2-Bromo-3-(4-methylpiperazin-1-yl)quinoxaline], the Ki on 5-HT3AB receptor was 0.00141 µM; on 5-HT3A receptor, 0.00049 µM.
With `CN1CCCN(c2nc3ccccc3nc2Cl)CC1` [compound 16, 2-Chloro-3-(4-methyl-1,4-diazepan-1-yl)quinoxaline], the Ki at 5-HT3AB receptor was 0.00457 µM; at 5-HT3A receptor, 0.000776 µM.
For the compound `CNC1CCN(c2nc3ccccc3nc2Cl)C1` (stereo not shown) [compound 18, 1-(3-Chloroquinoxalin-2-yl)-N-methylpyrrolidin-3-amine], the values for the Ki on 5-HT3AB receptor and on 5-HT3A receptor were 0.214 µM and 0.204 µM, respectively.
For `CN1CCCN(c2cnc3ccccc3n2)CC1` [compound 19, 2-(4-Methyl-1,4-diazepan-1-yl)quinoxaline], the Ki on 5-HT3AB receptor was 0.0331 µM; on 5-HT3A receptor, 0.00813 µM.
On the same counts, the results for `CNC1CCN(c2cnc3ccccc3n2)C1` (stereo not shown) [compound 21, N-Methyl-1-(quinoxalin-2-yl)pyrrolidin-3-amine] are 0.0776 µM and 0.0324 µM.
Regarding `CN1CCN(c2nc3ccc(Cl)cc3[nH]c2=O)CC1` [compound 22, 7-chloro-3-(4-methylpiperazin-1-yl)quinoxalin-2(1H)-one], the Ki on 5-HT3AB receptor is 0.00724 µM; at 5-HT3A receptor, 0.0316 µM.
`CN1CCN(c2nc3ccc(Cl)cc3nc2Cl)CC1` [compound 23, 3,6-Dichloro-2-(4-methylpiperazin-1-yl)quinoxaline]: the Ki on 5-HT3AB receptor is 0.0141 µM; at 5-HT3A receptor, 0.00112 µM.
On to `CN1CCN(c2cnc3ccccc3n2)CC1` [compound 24, 2-(4-methylpiperazin-1-yl)quinoxaline], for which the “pKi (AB)” value on 5-HT3AB receptor (0.7 nM [3H]granisetron, 10 mM HEPES pH 7.4, 4 °C, at least 24 h) worked out at 9.13±0.30. On 5-HT3A receptor, the “pKi (A)” value is 8.21±0.26.
Regarding `Cc1nc2ccccc2nc1N1CCN(C)CC1` [compound 26, 26], the figures for the Ki at 5-HT3AB receptor and on 5-HT3A receptor were 0.0038 µM and 0.00257 µM, respectively.
With `CN1CCN(c2nc3ccccc3nc2C(F)(F)F)CC1` [compound 27, 27], the Ki on 5-HT3AB receptor was 0.038 µM; at 5-HT3A receptor, 0.0447 µM.
Regarding `COc1nc2ccccc2nc1N1CCN(C)CC1` [compound 28, 28], the Ki at 5-HT3AB receptor is 0.00457 µM; at 5-HT3A receptor, 0.000661 µM.
Turning to `CCOc1nc2ccccc2nc1N1CCN(C)CC1` [compound 29, 29], the Ki at 5-HT3AB receptor is 0.00575 µM; at 5-HT3A receptor, 0.001 µM.
Turning to `CN1CCN(c2nc3ccccc3nc2OC2CCCCC2)CC1` [compound 30, 30], the Ki on 5-HT3AB receptor is 0.195 µM; on 5-HT3A receptor it was 0.537 µM.
As to `CN1CCN(c2nc3ccccc3nc2Oc2ccccc2)CC1` [compound 31, 31], the Ki on 5-HT3AB receptor was 0.17 µM; on 5-HT3A receptor it was 0.0871 µM.
For the compound `CN1CCN(c2nc3ccccc3nc2OCc2ccccc2)CC1` [compound 32, 32], the Ki is 0.0759 µM at 5-HT3AB receptor and 0.129 µM at 5-HT3A receptor.
As to `CN1CCN(c2cnc3cc(Cl)ccc3n2)CC1` [compound 33, 33], the Ki at 5-HT3AB receptor is 0.102 µM; at 5-HT3A receptor, 0.0162 µM.
On the same counts, the results for `CN1CCN(c2nc3cc(Cl)c(Cl)cc3[nH]c2=O)CC1` [compound 34, 34] are 0.0724 µM and 0.0501 µM.
